US11471503B2, “Use of KOR agonist in combination with MOR agonist in preparing drug for treating pain” (JIANGSU HENGRUI MEDICINE CO., LTD., priority 2017, dated 2022)
Where a SMILES comes first, the peptide text is derived from it. [ ]: non-standard residue; d: D form. The star is where a group is joined. Gly(N-(2R-Ph-propyl)) = C[C@@H](CNCC(=O)O)c1ccccc1; Piperidin1yl(4-NH2,4-COOH) = NC1(C(=O)O)CCN(*)CC1

Tested on: incision pain in rats
Assay: Incision pain test in rats, mechanical pain threshold by Electronic Von Frey
Assay type: in vivo, rat (male Wistar)
Conditions: for increase of tenderness threshold compared with the model group: i.v., 30 min after injection; for tenderness threshold: tail vein i.v. 24 h after incision, measured 30 min after injection, model group 8.91 g
Description: Example 3. Treatment Effect of the Combination of the KOR Agonist and the MOR Agonist of the Present Invention on Incision Pain in Rats
Compound 5 (prepared according to the method described in Example 1), and compound 20 (prepared according to the method described in Example 2). The compound dose was calculated on bases.
Experimental male Wistar rats were purchased from Shanghai Slac Laboratory Animal Co., Ltd. The rats weighed 140-160 g when purchased, and were fed at 5 rats/cage, under a condition of 12/12 hours light/dark cycle adjustment, a constant temperature of 23±1° C., a humidity of 50-60%, and free access to food and water. After purchase, the animals were subjected to an adaptive feeding for more than 3 days before the experiment was started.
Electronic Von Frey: UGO BASILE, type 38450.
Both compound 5 and compound 20 were formulated with normal saline.
The rats were randomly divided into the following groups according to the body weight: blank control group (n=10), model group (n=10) and drug-administered group (n=50). The drug-administered group was divided into the following groups: compound 20-0.03 mg/kg group (n=10), compound 5-0.3 mg/kg group (n=10), compound 5-0.1 mg/kg+compound 20-0.03 mg/kg group (n=10), compound 5-0.3 mg/kg+compound 20-0.03 mg/kg group (n=10), and compound 5-1 mg/kg+compound 20-0.03 mg/kg group (n=10). The model group and drug-administered group were subjected to an incision surgery. During the surgery, the rats were anesthetized with isoflurane. An incision (1 cm long) passing through the skin and fascia was made with a No. 10 surgical blade in the middle of the left hind paw. The skin was sutured with a 3-0 sterile silk surgical suture. The injured site was disinfected with antibiotic ointment and iodophor. The animals were returned to their original place to recover overnight. After 24 hours, the drug was injected through the tail vein, and the blank control group and the model group were administrated with normal saline two times with an interval of 15 minutes. The group administered with compound 20 alone was intravenously injected with the corresponding dose of compound 20 and the blank solvent for formulating compound 5. The group administered with compound 5 alone was intravenously injected with the corresponding dose of compound 5 and the blank solvent for formulating compound 20. […] The mechanical pain threshold of each group was measured by the Electronic Von Frey 30 minutes after the injection to evaluate the analgesic effect of the drug on the surgical incision pain and the intensity thereof.
The experimental data were expressed as mean±standard deviation (S.D.). […]

`CC(C)C[C@@H](NC(=O)[C@@H](Cc1ccccc1)NC(=O)CNC[C@H](C)c1ccccc1)C(=O)N[C@H](CCCCN)C(=O)N1CCC(N)(C(=O)O)CC1` [compound 5, 4-Amino-1-((2R,5R,8R,14R)-2-(4-aminobutyl)-8-benzyl-5-isobutyl-4,7,10-trioxo-14-phenyl-3,6,9,12-tetraazapentadecan-1-oyl)piperidine-4-carboxylic acid] (H-[Gly(N-(2R-Ph-propyl))][dF][dL][dK]-{Piperidin1yl(4-NH2,4-COOH)}) was tested, and the “increase of tenderness threshold compared with the model group” value (compound 5 0.3 mg/kg alone) was 101.1% and the tenderness threshold (compound 5 0.3 mg/kg alone) was 17.92 g.
With `CCO[C@H]1CC[C@H](NCC[C@@]2(c3ccccn3)CCOC3(CCCC3)C2)c2ccccc21` [compound 20, (1S,4S)-4-Ethoxy-N-(2-((R)-9-(pyridin-2-yl)-6-oxaspiro[4.5]decan-9-yl)ethyl)-1,2,3,4-tetrahydronaphthalen-1-amine] the “increase of tenderness threshold compared with the model group” value (compound 20 0.03 mg/kg alone) was 62.3% and the tenderness threshold (compound 20 0.03 mg/kg alone, blank control 14.48 g) was 14.46 g.
